Test results as given in article PMC12529303, “A phase I study of AZD8186 in combination with docetaxel in patients with PTEN-mutated or PIK3CB-mutated advanced solid tumors” (ESMO Open, 2025).
Read-outs that look alike come from different tables or passages of the source.

Assays:
clinical = conditions: human, in vivo
Protocol: (§1) Plasma samples were collected at predefined time points based upon the dosing schedules for docetaxel and AZD8186. Cycle 1, day 1 (C1D1) pretreatment baseline measurements were collected for both drugs. For docetaxel, samples were collected as follows: C2D1, pretreatment, 30 min and 55 min after the start of the docetaxel infusion, and 2 h and 5 h after the end of the docetaxel infusion; C2D2, ∼24 h after the start of the docetaxel infusion. For AZD8186, samples were collected as follows: C2D1, pretreatment and 1 h, 3 h, and 6 h after dosing; C2D2, ∼24 h after dose and before the next AZD8186 dose. Starting from cycle 3, a day 1 pretreatment sample was collected at each scheduled visit.
Plasma concentrations of docetaxel were quantified using a validated liquid chromatography and tandem mass spectrometry.[36] The lower limit of quantitation for docetaxel was 0.5 ng/ml. AZD8186 plasma concentration was quantified using a validated ultraperformance liquid chromatography and tandem mass spectrometry method with a 5-2000 ng/ml dynamic range. […]
Statistical analysis for pharmacokinetic (PK) studies was carried out using Graph Pad Prism software version 9.4.1 (GraphPad Software, Inc., Boston, MA). PK parameters were evaluated statistically by Kruskal–Wallis test. Significance was determined at a level of P < 0.05. […]

[1] = AZD8186 plasma pharmacokinetics (UPLC-MS/MS, noncompartmental); format: in vivo, human; conditions: for Cmin,ss / Cmax / Tmax / AUC(0-t): plasma; for Cmax / Tmax / AUC(0-t): human, oral, C2D1; for AUC(0-t): read-out: AUC0-6h
Protocol: as §1
Plasma concentrations of docetaxel were quantified using a validated liquid chromatography and tandem mass spectrometry.[36] The lower limit of quantitation for docetaxel was 0.5 ng/ml. AZD8186 plasma concentration was quantified using a validated ultraperformance liquid chromatography and tandem mass spectrometry method with a 5-2000 ng/ml dynamic range. Assays were carried out at the Sidney Kimmel Comprehensive Cancer Center Analytical Pharmacology Core Laboratory at Johns Hopkins University.
Statistical analysis for pharmacokinetic (PK) studies was carried out using Graph Pad Prism software version 9.4.1 (GraphPad Software, Inc., Boston, MA). PK parameters were evaluated statistically by Kruskal–Wallis test. Significance was determined at a level of P < 0.05. Between-group comparisons were conducted using the Wilcoxon signed rank test.

[2] = tested on: PTEN-null and PI3Kβ-driven preclinical models of breast and prostate cancer; parameters: method as in PMID 32215185, PMID 25398829; conditions: in vitro; cited from earlier work
xenograft mouse models = tested on: xenograft mouse models; parameters: method as in PMID 32215185, PMID 25398829; conditions: cited from earlier work
advanced solid tumors = tested on: advanced solid tumors; parameters: method as in PMID 35247924; conditions: 60 mg b.i.d. and 120 mg b.i.d.; cited from earlier work
[3] = tested on: castration-resistant prostate cancer with PTEN loss; parameters: method as in PMID 28645941; conditions: cited from earlier work
[4] = TAC-1B AZD8186 reduced: docetaxel 45 mg/m^2, AZD8186 30 mg, n=1
[5] = TAC1+GF: docetaxel 75 mg/m^2, AZD8186 60 mg, n=3
[6] = TAC-1: docetaxel 75 mg/m^2, AZD8186 60 mg, n=1
[7] = TAC-1B: docetaxel 60 mg/m^2, AZD8186 60 mg, n=1
[8] = TAC-2: docetaxel 75 mg/m^2, AZD8186 120 mg, n=7

SMILES: CC(=O)O[C@@]12CO[C@@H]1C[C@H](O)[C@@]1(C)C(=O)[C@H](O)C3=C(C)[C@@H](OC(=O)[C@H](O)[C@@H](NC(=O)OC(C)(C)C)c4ccccc4)C[C@@](O)([C@@H](OC(=O)c4ccccc4)[C@H]21)C3(C)C [docetaxel]
- Tmax (clinical): 0.92 h

SMILES: C[C@@H](Nc1cc(F)cc(F)c1)c1cc(C(=O)N(C)C)cc2c(=O)cc(N3CCOCC3)oc12 [AZD8186]
- steady-state trough concentrations across dosing cohorts ([1]; Kruskal-Wallis): not significantly different
- Cmin,ss ([1]; TAC1+GF: docetaxel 75 mg/m^2, AZD8186 60 mg, n=1): 176.0 (1) ng/mL
- Cmin,ss ([1]; TAC-1: docetaxel 75 mg/m^2, AZD8186 60 mg, mean ± SD, n=3): 149.8 ± 77.2 (3) ng/mL
- Cmin,ss ([1]; TAC-1 AZD8186 reduced: docetaxel 60 mg/m^2, AZD8186 30 mg, n=1): 66.0 (1) ng/mL
- Cmin,ss [1, 4]: 130.0 (1) ng/mL
- Cmin,ss ([1]; TAC-1B: docetaxel 60 mg/m^2, AZD8186 60 mg, mean ± SD, n=3): 83.5 ± 55.1 (3) ng/mL
- Cmin,ss ([1]; TAC-2: docetaxel 75 mg/m^2, AZD8186 120 mg, mean ± SD, n=6): 76.8 ± 49.2 (6) ng/mL
- Cmax ([1]; TAC1+GF: docetaxel 75 mg/m^2, AZD8186 60 mg): 166 ng/mL
- Tmax [1, 5]: 2.76 h
- AUC(0-t) [1, 5]: 224 ng·h/mL
- Cmax ([1]; TAC-1: docetaxel 75 mg/m^2, AZD8186 60 mg): 464 ng/mL
- Tmax [1, 6]: 3.87 h
- AUC(0-t) [1, 6]: 1110 ng·h/mL
- Cmax [1, 4]: 253 ng/mL
- Tmax [1, 4]: 8.43 h
- AUC(0-t) [1, 4]: 789 ng·h/mL
- Cmax [1, 7]: 285 ng/mL
- Tmax [1, 7]: 4.75 h
- AUC(0-t) [1, 7]: 808 ng·h/mL
- Cmax ([1]; TAC-2: docetaxel 75 mg/m^2, AZD8186 120 mg): 532 ng/mL
- Tmax [1, 8]: 4.43 h
- AUC(0-t) [1, 8]: 1800 ng·h/mL
- PI3K signaling and viability [2]: inhibited PI3K signaling and viability
- single-agent activity in vivo (xenograft mouse models): limited single-agent activity
- tolerability and target inhibition in plasma (advanced solid tumors): tolerable with dose-dependent target inhibition in plasma

SMILES: Cc1c(Cn2c(C)nc3c(C(=O)O)cc(N4CCOCC4)cc32)cccc1C(F)(F)F [GSK2636771]
- responses [3]: only anecdotal responses
